According to ChEMBL document CHEMBL4265951, “Multi-target-directed ligands for Alzheimer's disease: Discovery of chromone-based monoamine oxidase/cholinesterase inhibitors” (Eur J Med Chem, 2018):
Calls of active or inactive are those of the source. The calls are words filed in the database; no cut-off is given here.

Legend:
[1] = molecular target: T1, Amine oxidase [flavin-containing] B (Homo sapiens, UniProt P27338); experiment: Inhibition of human recombinant MAOB expressed in baculovirus infected BTI-TN-5B1- 4 cells using p-tyramine as substrate assessed as decrease in H2O2 production at 10 uM by amplex red-based fluorescence assay
T1 sequence (P27338 whole entry): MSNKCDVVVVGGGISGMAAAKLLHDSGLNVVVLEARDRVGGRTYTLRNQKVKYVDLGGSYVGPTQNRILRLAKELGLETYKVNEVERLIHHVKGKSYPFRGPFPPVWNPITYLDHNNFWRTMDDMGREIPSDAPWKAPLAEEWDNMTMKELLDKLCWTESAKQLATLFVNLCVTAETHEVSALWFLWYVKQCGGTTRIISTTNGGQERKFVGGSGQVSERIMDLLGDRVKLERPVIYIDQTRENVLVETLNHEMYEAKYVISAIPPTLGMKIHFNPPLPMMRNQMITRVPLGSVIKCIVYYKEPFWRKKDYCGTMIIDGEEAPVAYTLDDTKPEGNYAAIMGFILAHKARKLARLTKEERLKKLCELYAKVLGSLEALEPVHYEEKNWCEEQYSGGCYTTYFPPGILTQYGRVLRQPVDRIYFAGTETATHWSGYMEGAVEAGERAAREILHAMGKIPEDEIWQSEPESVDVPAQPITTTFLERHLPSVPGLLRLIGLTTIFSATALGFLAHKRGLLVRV

Acetylcholinesterase [2] = molecular target: T2, Acetylcholinesterase (Homo sapiens, UniProt P22303); experiment: Inhibition of human AChE using acetylthiocholine iodide as substrate pretreated for 5 mins followed by substrate addition measured after 5 mins by Ellman's method
Cholinesterase [3] = molecular target: T3, Cholinesterase (Homo sapiens, UniProt P06276); experiment: Inhibition of human serum BuChE at 10 uM using butyrylthiocholine as substrate pretreated for 5 mins followed by substrate addition measured after 5 mins by Ellman's method
[4] = molecular target: T4, Amine oxidase [flavin-containing] A (Homo sapiens, UniProt P21397); experiment: Inhibition of human recombinant microsomal MAOA expressed in baculovirus infected BTI-TN-5B1- 4 cells using p-tyramine as substrate assessed as decrease in H2O2 production at 10 uM by amplex red-based fluorescence assay
T4 sequence (P21397 whole entry): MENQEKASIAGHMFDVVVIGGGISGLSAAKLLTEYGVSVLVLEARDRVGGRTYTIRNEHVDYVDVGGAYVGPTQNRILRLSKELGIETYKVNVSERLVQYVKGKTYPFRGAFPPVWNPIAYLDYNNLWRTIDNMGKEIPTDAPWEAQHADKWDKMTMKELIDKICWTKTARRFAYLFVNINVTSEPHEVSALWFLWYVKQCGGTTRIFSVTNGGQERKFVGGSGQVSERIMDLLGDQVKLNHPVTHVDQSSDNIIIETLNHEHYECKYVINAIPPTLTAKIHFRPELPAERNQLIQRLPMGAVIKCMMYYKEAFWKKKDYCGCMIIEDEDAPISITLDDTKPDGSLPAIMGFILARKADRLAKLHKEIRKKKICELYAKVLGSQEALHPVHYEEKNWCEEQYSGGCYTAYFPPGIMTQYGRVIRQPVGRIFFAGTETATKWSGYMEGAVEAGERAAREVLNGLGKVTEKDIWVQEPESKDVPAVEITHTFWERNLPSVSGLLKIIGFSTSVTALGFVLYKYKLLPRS

Acetylcholinesterase [5] = molecular target: T2, Acetylcholinesterase; experiment: Inhibition of human AChE at 10 uM using acetylthiocholine iodide as substrate pretreated for 5 mins followed by substrate addition measured after 5 mins by Ellman's method
in vitro = conditions: PAMPA
Description: Effective permeability of the compound at 1 mg/ml after 4 hrs by BBB-PAMPA method

[6] = molecular target: T4, Amine oxidase [flavin-containing] A; experiment: biochemical
Description: Inhibition of human recombinant microsomal MAOA expressed in baculovirus infected BTI-TN-5B1- 4 cells using p-tyramine as substrate assessed as decrease in H2O2 production by amplex red-based fluorescence assay

Cholinesterase [7] = molecular target: T3, Cholinesterase; experiment: Inhibition of human serum BuChE using butyrylthiocholine as substrate pretreated for 5 mins followed by substrate addition measured after 5 mins by Ellman's method
Beta-secretase 1 = Beta-secretase 1 (Homo sapiens, UniProt P56817); experiment: Inhibition of human BACE1 using rhodamine-EVNLDAEFK-quencher as substrate after 60 mins by FRET assay
[8] = molecular target: T1, Amine oxidase [flavin-containing] B; experiment: biochemical; assay type: cell-based
Description: Inhibition of human recombinant MAOB expressed in baculovirus infected BTI-TN-5B1- 4 cells using p-tyramine as substrate assessed as decrease in H2O2 production by amplex red-based fluorescence assay

T3 sequence (P06276 whole entry): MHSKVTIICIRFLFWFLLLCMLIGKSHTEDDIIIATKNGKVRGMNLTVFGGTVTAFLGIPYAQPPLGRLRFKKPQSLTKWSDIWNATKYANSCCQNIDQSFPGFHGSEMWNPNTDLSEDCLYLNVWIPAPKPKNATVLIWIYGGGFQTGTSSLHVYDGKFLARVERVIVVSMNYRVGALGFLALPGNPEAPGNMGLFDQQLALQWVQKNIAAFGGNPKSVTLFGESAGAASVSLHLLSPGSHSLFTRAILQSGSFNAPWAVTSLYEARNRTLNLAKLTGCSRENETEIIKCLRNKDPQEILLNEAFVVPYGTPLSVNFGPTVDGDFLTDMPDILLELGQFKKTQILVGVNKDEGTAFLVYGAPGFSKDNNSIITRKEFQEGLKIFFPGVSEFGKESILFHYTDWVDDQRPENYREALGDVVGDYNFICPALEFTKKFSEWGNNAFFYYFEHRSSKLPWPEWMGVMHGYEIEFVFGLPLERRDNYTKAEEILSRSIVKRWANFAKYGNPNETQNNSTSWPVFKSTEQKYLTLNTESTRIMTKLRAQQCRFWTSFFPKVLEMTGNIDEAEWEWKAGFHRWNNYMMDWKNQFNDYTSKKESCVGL
T2 sequence (P22303 whole entry): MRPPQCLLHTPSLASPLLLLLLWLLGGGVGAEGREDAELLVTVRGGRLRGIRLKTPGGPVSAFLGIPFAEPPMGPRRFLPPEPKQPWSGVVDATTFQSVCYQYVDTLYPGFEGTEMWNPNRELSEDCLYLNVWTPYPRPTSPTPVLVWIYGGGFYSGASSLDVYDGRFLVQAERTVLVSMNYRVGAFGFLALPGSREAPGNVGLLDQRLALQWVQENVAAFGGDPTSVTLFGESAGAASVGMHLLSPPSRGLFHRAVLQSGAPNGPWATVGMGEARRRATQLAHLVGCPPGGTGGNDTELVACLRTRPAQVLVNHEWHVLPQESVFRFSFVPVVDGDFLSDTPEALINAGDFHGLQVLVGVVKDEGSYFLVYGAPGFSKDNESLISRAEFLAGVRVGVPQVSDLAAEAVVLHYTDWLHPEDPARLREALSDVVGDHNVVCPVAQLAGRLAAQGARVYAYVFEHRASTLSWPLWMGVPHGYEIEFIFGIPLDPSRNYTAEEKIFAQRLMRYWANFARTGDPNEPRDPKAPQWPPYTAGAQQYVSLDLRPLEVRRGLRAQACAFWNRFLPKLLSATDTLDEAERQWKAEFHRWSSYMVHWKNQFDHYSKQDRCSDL
Sequence of Beta-secretase 1 (P56817 whole entry): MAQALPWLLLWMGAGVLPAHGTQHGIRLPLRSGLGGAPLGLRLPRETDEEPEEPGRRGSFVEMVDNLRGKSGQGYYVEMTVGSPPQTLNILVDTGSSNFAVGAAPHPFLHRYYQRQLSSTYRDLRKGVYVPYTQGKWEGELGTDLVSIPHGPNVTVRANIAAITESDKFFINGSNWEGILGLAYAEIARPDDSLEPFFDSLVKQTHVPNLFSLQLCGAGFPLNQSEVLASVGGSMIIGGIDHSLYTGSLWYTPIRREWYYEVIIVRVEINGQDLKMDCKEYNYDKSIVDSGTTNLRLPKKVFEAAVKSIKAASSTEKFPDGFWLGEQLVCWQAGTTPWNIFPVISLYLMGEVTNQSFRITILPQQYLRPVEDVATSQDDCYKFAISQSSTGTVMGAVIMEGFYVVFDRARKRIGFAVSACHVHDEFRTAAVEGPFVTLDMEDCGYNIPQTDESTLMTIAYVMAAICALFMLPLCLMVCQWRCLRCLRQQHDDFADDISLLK

Row | SMILES | inhibition (INH) [1] | IC50 (Acetylcholinesterase [2]) [µM] | inhibition (Cholinesterase [3]) | inhibition (INH) [4] | inhibition (Acetylcholinesterase [5]) | Papp at 4 h, 1 mg/ml (in vitro) [×10⁻⁶ cm/s] | IC50 [6] [µM] | IC50 (Cholinesterase [7]) [µM] | IC50 (Beta-secretase 1) [µM] | IC50 [8] [µM]
1 | COc1ccc(NC(=O)c2coc3ccc(/C=C/C(=O)O)cc3c2=O)cc1 | Not Active | 8.7 | inactive | Not Active | – | – | – | – | – | –
2 | Cc1ccc(NC(=O)c2coc3ccc(/C=C/C(=O)O)cc3c2=O)cc1 | Not Active | – | inactive | Not Active | inactive | 1.6 | – | – | – | –
3 | CCN(CC)CCOC(=O)/C=C/c1ccc2occ(C(=O)Nc3ccc(C)cc3)c(=O)c2c1 | Not Active | 8.99 | inactive | Not Active | – | – | – | – | – | –
4 | CCN(CC)CCOC(=O)/C=C/c1ccc2occ(C(=O)Nc3ccc(OC)cc3)c(=O)c2c1 | Not Active | 5.43 | inactive | Not Active | – | – | – | – | – | –
5 | O=C(O)/C=C/c1ccc2occ(C(=O)Nc3cccc(Cl)c3)c(=O)c2c1 | Not Active | – | inactive | Not Active | inactive | – | – | – | – | –
6 | CCN(CC)CCOC(=O)/C=C/c1ccc2oc(C(=O)Nc3ccc(C)cc3)cc(=O)c2c1 | Not Active | 9.87 | inactive | Not Active | – | – | – | – | – | –
7 | O=C(O)/C=C/c1ccc2oc(C(=O)Nc3ccccc3)cc(=O)c2c1 | Not Active | 5.99 | inactive | Not Active | – | 0.9 | – | – | – | –
8 | CCN(CC)CCOC(=O)/C=C/c1ccc2oc(C(=O)Nc3ccc(OC)cc3)cc(=O)c2c1 | Not Active | 1.14 | inactive | Not Active | – | – | – | – | – | –
9 | COc1ccc(NC(=O)c2cc(=O)c3cc(/C=C/C(=O)OCCN(C)C)ccc3o2)cc1 | Not Active | 0.91 | inactive | – | – | – | 4.91 | – | – | –
10 | COc1ccc(NC(=O)c2cc(=O)c3cc(/C=C/C(=O)O)ccc3o2)cc1 | Not Active | 7.43 | inactive | Not Active | – | – | – | – | – | –
11 | CCN(CC)CCOC(=O)/C=C/c1ccc2occ(C(=O)Nc3ccc(Cl)cc3)c(=O)c2c1 | Not Active | 7.68 | inactive | Not Active | – | – | – | – | – | –
12 | Cc1ccc(NC(=O)c2coc3ccc(/C=C/C(=O)OCCN(C)C)cc3c2=O)cc1 | – | 0.97 | – | Not Active | – | 9.7 | – | 7.42 | > 10 | 2.37
13 | Cc1ccc(NC(=O)c2coc3ccc(/C=C/C(=O)OCCN(C)C)cc3c2=O)cc1C | – | – | inactive | Not Active | inactive | – | – | – | – | 3.65
14 | CN(C)CCOC(=O)/C=C/c1ccc2oc(C(=O)Nc3cccc(Cl)c3)cc(=O)c2c1 | Not Active | 5.92 | inactive | Not Active | – | – | – | – | – | –
15 | CCN(CC)CCOC(=O)/C=C/c1ccc2oc(C(=O)Nc3ccccc3)cc(=O)c2c1 | Not Active | 3.47 | inactive | Not Active | – | – | – | – | – | –
16 | CCN(CC)CCOC(=O)/C=C/c1ccc2oc(C(=O)Nc3cccc(Cl)c3)cc(=O)c2c1 | Not Active | 4.45 | inactive | Not Active | – | – | – | – | – | –
17 | CN(C)CCOC(=O)/C=C/c1ccc2oc(C(=O)Nc3ccc(Cl)cc3)cc(=O)c2c1 | Not Active | 1.22 | inactive | Not Active | – | – | – | – | – | –

Row | SMILES | inhibition (INH) [1] | IC50 (Acetylcholinesterase [2]) [µM] | inhibition (Cholinesterase [3]) | inhibition (INH) [4] | inhibition (Acetylcholinesterase [5]) | Papp at 4 h, 1 mg/ml (in vitro) [×10⁻⁶ cm/s] | IC50 [6] [µM] | IC50 (Cholinesterase [7]) [µM] | IC50 (Beta-secretase 1) [µM] | IC50 [8] [µM]
18 | CN(C)CCOC(=O)/C=C/c1ccc2occ(C(=O)Nc3cccc(Cl)c3)c(=O)c2c1 | – | – | inactive | Not Active | inactive | – | – | – | – | 2.21
19 | O=C(O)/C=C/c1ccc2oc(C(=O)Nc3ccc(Cl)cc3)cc(=O)c2c1 | Not Active | – | inactive | Not Active | inactive | – | – | – | – | –
20 | O=C(O)/C=C/c1ccc2oc(C(=O)Nc3cccc(Cl)c3)cc(=O)c2c1 | Not Active | – | inactive | Not Active | inactive | – | – | – | – | –
21 | Cc1ccc(NC(=O)c2cc(=O)c3cc(/C=C/C(=O)OCCN(C)C)ccc3o2)cc1C | Not Active | 0.21 | inactive | Not Active | – | – | – | – | – | –
22 | CCN(CC)CCOC(=O)/C=C/c1ccc2oc(C(=O)Nc3ccc(C)c(C)c3)cc(=O)c2c1 | – | 2.47 | inactive | Not Active | – | – | – | – | – | 2.54
23 | Cc1ccc(NC(=O)c2cc(=O)c3cc(/C=C/C(=O)O)ccc3o2)cc1C | Not Active | – | inactive | Not Active | inactive | – | – | – | – | –
24 | CCN(CC)CCOC(=O)/C=C/c1ccc2occ(C(=O)Nc3cccc(Cl)c3)c(=O)c2c1 | – | 8.54 | inactive | Not Active | – | – | – | – | – | 1.25
25 | CN(C)CCOC(=O)/C=C/c1ccc2occ(C(=O)Nc3ccc(Cl)cc3)c(=O)c2c1 | – | 9.32 | inactive | Not Active | – | – | – | – | – | 0.72
26 | CN(C)CCOC(=O)/C=C/c1ccc2oc(C(=O)Nc3ccccc3)cc(=O)c2c1 | – | 0.74 | – | Not Active | – | 3.6 | – | 1.57 | > 10 | 2.28
27 | CCN(CC)CCOC(=O)/C=C/c1ccc2oc(C(=O)Nc3ccc(Cl)cc3)cc(=O)c2c1 | Not Active | 0.86 | inactive | Not Active | – | – | – | – | – | –
28 | O=C(O)/C=C/c1ccc2occ(C(=O)Nc3ccc(Cl)cc3)c(=O)c2c1 | Not Active | – | inactive | Not Active | inactive | – | – | – | – | –
29 | COc1ccc(NC(=O)c2coc3ccc(/C=C/C(=O)OCCN(C)C)cc3c2=O)cc1 | Not Active | 3.54 | inactive | Not Active | – | – | – | – | – | –
30 | Cc1ccc(NC(=O)c2coc3ccc(/C=C/C(=O)O)cc3c2=O)cc1C | – | – | inactive | Not Active | inactive | – | – | – | – | 4.52
31 | CCN(CC)CCOC(=O)/C=C/c1ccc2occ(C(=O)Nc3ccc(C)c(C)c3)c(=O)c2c1 | Not Active | – | inactive | Not Active | – | – | – | – | – | –
32 | Cc1ccc(NC(=O)c2cc(=O)c3cc(/C=C/C(=O)O)ccc3o2)cc1 | Not Active | 5.1 | inactive | Not Active | – | 1.5 | – | – | – | –
33 | CCN(CC)CCOC(=O)/C=C/c1ccc2occ(C(=O)Nc3ccccc3)c(=O)c2c1 | Not Active | – | inactive | Not Active | inactive | – | – | – | – | –
